In ChEMBL document CHEMBL1201862, “PubChem BioAssay data set” (2004):
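96-well plates; 48 h exposure; 5 concentrations. Endpoints by linear interpolation between flanking doses. Not reached: highest tested concentration assigned. GI50: concentration for 50% inhibition of growth.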 Activity calls are given as the source filed them. No stated cut-off is given here; in the data, active = GI50 up to about 1.1 µM and inactive = higher.

Columns and labels:
Test in all cases: growth of human tumour cells (NCI), 48 h
BT-549 = system: BT-549
U-251 = system: U-251
KM12 = system: KM12
EKVX = system: EKVX
HOP-62 = system: HOP-62
HOP-92 = system: HOP-92
OVCAR-5 = system: OVCAR-5
CCRF-CEM = system: CCRF-CEM
UACC-257 = system: UACC-257
SF-268 = system: SF-268
SK-OV-3 = system: SK-OV-3
NCI-H522 = system: NCI-H522
SK-MEL-28 = system: SK-MEL-28
A549 = system: A549
SF-295 = system: SF-295
SNB-19 = system: SNB-19
MCF7 = system: MCF7
Malme-3M = system: Malme-3M
T47D = system: T47D
NCI-H460 = system: NCI-H460
MDA-MB-231 = system: MDA-MB-231
CAKI-1 = system: CAKI-1
RXF 393 = system: RXF 393
SF-539 = system: SF-539
HT-29 = system: HT-29
OVCAR-4 = system: OVCAR-4
SN12C = system: SN12C
UO-31 = system: UO-31
HCT-15 = system: HCT-15
HL-60 = system: HL-60
IGROV-1 = system: IGROV-1
LOX IMVI = system: LOX IMVI
Hs-578T = system: Hs-578T
NCI-H226 = system: NCI-H226
RPMI-8226 = system: RPMI-8226
OVCAR-8 = system: OVCAR-8
MDA-MB-435 = system: MDA-MB-435
ACHN = system: ACHN
TK-10 = system: TK-10
SW-620 = system: SW-620
M14 = system: M14
A498 = system: A498
UACC-62 = system: UACC-62
MDA-N = system: MDA-N
SNB-75 = system: SNB-75
PC-3 = system: PC-3
HCC 2998 = system: HCC 2998
786-0 = system: 786-0
NCI/ADR-RES = system: NCI/ADR-RES
SK-MEL-2 = system: SK-MEL-2
SK-MEL-5 = system: SK-MEL-5
OVCAR-3 = system: OVCAR-3
NCI-H23 = system: NCI-H23
HCT-116 = system: HCT-116
COLO 205 = system: COLO 205
K562 = system: K562
DU-145 = system: DU-145
MOLT-4 = system: MOLT-4
SR = system: SR

With `COC(=O)/C(=N\NC(=S)NN)C(C(=O)OC)C(=O)C(=O)Nc1cccc(C(F)(F)F)c1` (centres undefined) the GI50 (BT-549) was > 100 µM (inactive), the GI50 (U-251) was > 100 µM (inactive) and the GI50 (KM12) was > 100 µM (inactive). The GI50 (EKVX) was > 100 µM (inactive), the GI50 (HOP-62) was > 100 µM (inactive) and the GI50 (HOP-92) was > 100 µM (inactive). The GI50 (OVCAR-5) was 79.1 µM (inactive), the GI50 (CCRF-CEM) was > 100 µM (inactive) and the GI50 (UACC-257) was > 100 µM (inactive). For the same compound, the GI50 (SF-268) was > 100 µM (inactive), the GI50 (SK-OV-3) was > 100 µM (inactive) and the GI50 (NCI-H522) was > 100 µM (inactive). For the same compound, the GI50 (SK-MEL-28) was 49.3 µM (inactive), the GI50 (A549) was > 100 µM (inactive) and the GI50 (SF-295) was > 100 µM (inactive). The GI50 (SNB-19) was > 100 µM (inactive), the GI50 (MCF7) was > 100 µM (inactive) and the GI50 (Malme-3M) was > 100 µM (inactive). For the same compound, the GI50 (T47D) was > 100 µM (inactive), the GI50 (NCI-H460) was > 100 µM (inactive) and the GI50 (MDA-MB-231) was > 100 µM (inactive). For the same compound, the GI50 (CAKI-1) was > 100 µM (inactive), the GI50 (RXF 393) was > 100 µM (inactive) and the GI50 (SF-539) was > 100 µM (inactive). The GI50 (HT-29) was > 100 µM (inactive), the GI50 (OVCAR-4) was > 100 µM (inactive) and the GI50 (SN12C) was > 100 µM (inactive). For the same compound, the GI50 (UO-31) was > 100 µM (inactive), the GI50 (HCT-15) was greater than 100 µM and the GI50 (HL-60) was > 100 µM (inactive). The GI50 (IGROV-1) was > 100 µM (inactive), the GI50 (LOX IMVI) was > 100 µM (inactive) and the GI50 (Hs-578T) was > 100 µM (inactive). The GI50 (NCI-H226) was > 100 µM (inactive), the GI50 (RPMI-8226) was > 100 µM (inactive) and the GI50 (OVCAR-8) was > 100 µM (inactive). The GI50 (MDA-MB-435) was > 100 µM (inactive), the GI50 (ACHN) was > 100 µM (inactive) and the GI50 (TK-10) was > 100 µM (inactive). For the same compound, the GI50 (SW-620) was > 100 µM (inactive), the GI50 (M14) was > 100 µM (inactive) and the GI50 (A498) was > 100 µM (inactive). The GI50 (UACC-62) was > 100 µM (inactive), the GI50 (MDA-N) was > 100 µM (inactive) and the GI50 (SNB-75) was > 100 µM (inactive). The GI50 (PC-3) was > 100 µM (inactive), the GI50 (HCC 2998) was > 100 µM (inactive) and the GI50 (786-0) was > 100 µM (inactive). The GI50 (NCI/ADR-RES) was > 100 µM (inactive), the GI50 (SK-MEL-2) was > 100 µM (inactive) and the GI50 (SK-MEL-5) was > 100 µM (inactive). For the same compound, the GI50 (OVCAR-3) was > 100 µM (inactive), the GI50 (NCI-H23) was > 100 µM (inactive) and the GI50 (HCT-116) was > 100 µM (inactive).
For `COc1cccc(-c2ccc3c4c2O[C@H]2c5[nH]c6ccccc6c5C[C@@]5(O)[C@@H](C3)N(CC3CC3)CC[C@]425)c1`, the GI50 (BT-549) was 4.83 µM (inactive), the GI50 (U-251) was 1.77 µM (inactive) and the GI50 (KM12) was 1.85 µM (inactive). The GI50 (EKVX) was 3.86 µM (inactive), the GI50 (HOP-62) was 1.74 µM (inactive) and the GI50 (HOP-92) was 1.37 µM (inactive). For the same compound, the GI50 (OVCAR-5) was 7.08 µM (inactive), the GI50 (CCRF-CEM) was 3.29 µM (inactive) and the GI50 (UACC-257) was 1.74 µM (inactive). The GI50 (SF-268) was 1.61 µM (inactive), the GI50 (NCI-H522) was 1.15 µM (inactive) and the GI50 (A549) was 1.77 µM (inactive). The GI50 (SF-295) was 1.71 µM (inactive), the GI50 (SNB-19) was 2.05 µM (inactive) and the GI50 (MCF7) was 1.69 µM (inactive). The GI50 (COLO 205) was 1.81 µM (inactive), the GI50 (Malme-3M) was 1.5 µM (inactive) and the GI50 (T47D) was 2.1 µM (inactive). The GI50 (NCI-H460) was 1.79 µM (inactive), the GI50 (MDA-MB-231) was 0.14 µM (active) and the GI50 (CAKI-1) was 2.1 µM (inactive). For the same compound, the GI50 (RXF 393) was 1.66 µM (inactive), the GI50 (SF-539) was 1.78 µM (inactive) and the GI50 (HT-29) was 1.7 µM (inactive). The GI50 (K562) was 1.9 µM (inactive), the GI50 (DU-145) was 2.54 µM (inactive) and the GI50 (OVCAR-4) was 1.71 µM (inactive). For the same compound, the GI50 (SN12C) was 1.67 µM (inactive), the GI50 (UO-31) was 1.72 µM (inactive) and the GI50 (HCT-15) was 1.84 µM. The GI50 (HL-60) was 1.38 µM (inactive), the GI50 (IGROV-1) was 1.64 µM (inactive) and the GI50 (LOX IMVI) was 1.72 µM (inactive). For the same compound, the GI50 (Hs-578T) was 1.49 µM (inactive), the GI50 (MOLT-4) was 0.82 µM (active) and the GI50 (NCI-H226) was 6.84 µM (inactive). For the same compound, the GI50 (RPMI-8226) was 2.18 µM (inactive), the GI50 (OVCAR-8) was 1.65 µM (inactive) and the GI50 (MDA-MB-435) was 1.77 µM (inactive). The GI50 (ACHN) was 1.63 µM (inactive), the GI50 (SR) was 1.76 µM (inactive) and the GI50 (TK-10) was 1.72 µM (inactive). For the same compound, the GI50 (SW-620) was 1.93 µM (inactive), the GI50 (M14) was 1.81 µM (inactive) and the GI50 (A498) was 2.19 µM (inactive). The GI50 (UACC-62) was 1.67 µM (inactive), the GI50 (MDA-N) was 1.85 µM (inactive) and the GI50 (HCC 2998) was 1.53 µM (inactive). For the same compound, the GI50 (786-0) was 1.7 µM (inactive), the GI50 (NCI/ADR-RES) was 2.07 µM (inactive) and the GI50 (SK-MEL-2) was 1.69 µM (inactive). For the same compound, the GI50 (SK-MEL-5) was 1.94 µM (inactive), the GI50 (OVCAR-3) was 1.9 µM (inactive) and the GI50 (NCI-H23) was 2.21 µM (inactive). The GI50 (HCT-116) was 1.63 µM (inactive).
